A word on the GI50: it is the concentration that inhibits growth by half. Read a low GI50 as more potent growth inhibition. As usually defined, the Kd is the constant that tells how readily two partners part at equilibrium. A low value points to tighter binding.

This note sets out measurements from patent US20260062422A1 (Halda Therapeutics OpCo, Inc., priority 2022, published 2026).

For test [1], the system named is T47D cells. In words: Cellular growth inhibition assay for T47D cells, CellTiter-Glo. Format: cell-based, human. The conditions noted are these: Homo sapiens, T47D, 72 h, 72 hours treatment, CellTiter-Glo 2.0 cell viability. The gist of the method:
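Luminescence from CellTiter-Glo 2.0 after 72 h of compound exposure gives the viability signal. Cells grew in insulin-supplemented (0.2 units/mL) DMEM with 10% FBS and were treated one day after seeding at 0.5% DMSO. GI50 values come from four-parameter nonlinear regression.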
A general note: ATP-based viability assays read luminescence as a measure of living cells.

Test [2] deals with T1, BRD4-BD1 (Homo sapiens, UniProt O60885).
T1 construct: made in house; host or cells: T7 phage grown in an E. coli host derived from BL21
Nature of the test: bromoKdELECT assay for binding affinity to BRD4-BD1. The conditions noted are these: Table 6. As to the method: Compounds were tested using a bromoKdELECT assay. T7 phage strains displaying bromodomains were grown in parallel in 24-well blocks in an E. coli host derived from the BL21 strain. E. coli were grown to log-phase and infected with T7 phage from a frozen stock (multiplicity of infection=0.4) and incubated with shaking at 32° C. until lysis (90-150 minutes). The lysates were centrifuged (5,000×g) and filtered (0.2 μm) to remove cell debris. Streptavidin-coated magnetic beads were treated with biotinylated small molecule or acetylated peptide ligands for 30 minutes at room temperature to generate affinity resins for bromodomain assays. The liganded beads were blocked with excess biotin and washed with blocking buffer (SeaBlock (Pierce), 1% BSA, 0.05% Tween 20, 1 mM DTT) to remove unbound ligand and to reduce nonspecific phage binding. Binding reactions were assembled by combining bromodomains, liganded affinity beads, and test compounds in 1× binding buffer (17% SeaBlock, 0.33×PBS, 0.04% Tween 20, 0.02% BSA, 0.004% Sodium azide, 7.4 mM DTT). Test compounds were prepared as 1000× stocks in 100% DMSO. Kds were determined using an 11-point 3-fold compound dilution series with one DMSO control point. All compounds for Kd measurements are distributed by acoustic transfer (non-contact dispensing) in 100% DMSO. The compounds were then diluted directly into the assays such that the final concentration of DMSO was 0.09%. All reactions performed in polypropylene 384-well plates. Each was a final volume of 0.02 ml. The assay plates were incubated at room temperature with shaking for 1 hour and the affinity beads were washed with wash buffer (1×PBS, 0.05% Tween 20). The beads were then resuspended in elution buffer (1×PBS, 0.05% Tween […] non-biotinylated affinity ligand) and incubated at room temperature with shaking for 30 minutes. The bromodomain concentration in the eluates was measured by qPCR.

Test [3] relates to T-Rex 293 cell line SC cells lacking increased expression of progesterone receptor isoform B protein. Nature of the test: Cellular growth inhibition, T-Rex 293 SC cells without doxycycline, Example 45. The conditions noted are these: T-Rex 293 SC cells not exposed to doxycycline, 72 hours treatment, CellTiter-Glo 2.0. Format: cell-based. The protocol: (§1) The following types of cells were prepared for this experiment: (i) a T-Rex 293 cell line having increased expression of progesterone receptor isoform B protein due to exposure to doxycycline and (ii) a T-Rex 293 cell line lacking increased expression of progesterone receptor isoform B protein. Ability of the test compounds to inhibit proliferation of the foregoing cell types was evaluated according to the procedures set forth below.
(§2) The doxycycline-inducible progesterone receptor isoform B protein expressing cell line was established using the following protocol: T-Rex 293 cells were purchased from Invitrogen (Cat #R71007) and transfected using Lipofectamine 2000 with the wild-type progesterone receptor B protein sequence cloned into the pcDNA4/TO vector. Transfected cells were selected using 400 μg/mL Zeocin (Invitrogen Cat #R25001). Following selection, single clones were raised and maintained in Dulbecco's Modified Eagle Medium (DMEM) supplemented with 10% w/w Tetracycline-free fetal bovine serum (FBS) and 250 μg/mL Zeocin. Clones were analyzed for expression of progesterone receptor isoform B protein in the presence and absence of 10 ng/mL doxycycline (Sigma Cat #D9891), and a single doxycycline-inducible clone (hereinafter “SC”) was selected for use in downstream assays.
(§3) The SC cells were seeded on poly-D-lysine coated, black clear-bottom 384-well plates at 2500/well, in 25 μL Phenol Red Free Dulbecco's Modified Eagle Medium (DMEM) supplemented with 10% w/w charcoal-dextran treated fetal bovine serum (FBS) and 1% w/w pen-strep, with or without 10 ng/mL doxycycline. Pen-Strep is a commercially available mixture of penicillin G and streptomycin, which is used in mammalian cell culture media to prevent bacterial contamination. Phenol Red Free Dulbecco's Modified Eagle Medium (DMEM) supplemented with 10% w/w charcoal-dextran treated fetal bovine serum (FBS) and 1% w/w pen-strep, with or without 10 ng/mL doxycycline is herein referred to as Treatment Medium. Following seeding of cells in the plates, the plates were spun at 300×g for 30 seconds, then equilibrated to room temperature for 30 minutes, and then deposited in a humidified tissue culture incubator maintained at 37° C. with 5% CO2.
(§4) At 24 hours after seeding of the cells, dilutions of test compound were prepared in DMSO and dissolved in Treatment Medium, to achieve a final DMSO concentration of 0.5% w/w, thereby providing the Test Compound Solution. A 25 μL aliquot of the Test Compound Solution was added to cells in the well plates. An equal volume of a solution containing DMSO and Treatment Medium was used as a negative control. Following treatment of cells with Test Compound Solution or said equal volume of a solution containing DMSO and Treatment Medium, the plates were spun at 300×g for 30 seconds, and then left in an incubator for 72 hours.
(§5) At the end of the treatment duration, cell viability was quantified with CellTiter-Glo 2.0 reagent (Promega Cat #G9243). For this purpose, plates were equilibrated to room temperature for 30 minutes, and then 25 μL of CellTiter-Glo 2.0 reagent was added to cells in the plate wells. Plates were then agitated on a shaker for two minutes at 500 rpm and subsequently incubated at room temperature for 10 minutes. Following incubation, the plates were spun at 3000×g for 30 seconds, then sealed with an optical adhesive cover, and luminescence readings were measured with an EnVision Plate Reader (Perkin Elmer).
(§6) Data was normalized using zero luminescence for baseline. A four-parameter non-linear regression curve fit was applied to dose-response data in GraphPad Prism data analysis software to determine the half-maximal growth inhibitory concentration (GI50) for each test compound.

Test [4] in a line: Cellular growth inhibition, T-Rex 293 SC cells with doxycycline (progesterone receptor isoform B induced), Example 45. Format: cell-based. The conditions noted are these: progesterone receptor isoform B induced with 10 ng/mL doxycycline, 72 hours, CellTiter-Glo 2.0, Table 11. As to the method:
as §1, §2, §3, §4, §5, §6

Consider `Cc1sc2c(c1C)C(c1ccc(CCCOC3CCN(c4ncc(C(=O)N[C@H]5C(C)(C)[C@H](Oc6ccc(C#N)c(Cl)c6)C5(C)C)cn4)CC3)cc1)=N[C@@H](CC(=O)NC1CC1)c1nnc(C)n1-2` [Compound I-102], for which, in test [1], the GI50 is less than 500 nM. The compound further had a Kd in test [2] of 500 to 2500 nM.
As for `Cc1sc2c(c1C)C(c1ccc(Cl)cc1)=N[C@@H](CC(=O)NCCCCOCCOC1CCN(c3ncc(C(=O)N[C@H]4C(C)(C)[C@H](Oc5ccc(C#N)c(Cl)c5)C4(C)C)cn3)CC1)c1nnc(C)n1-2` [Compound I-28], the Kd in test [2] lay in the range of 500 to 2500 nM.
Turning to `Cc1sc2c(c1C)C(c1ccc(Cl)cc1)=N[C@@H](CC(=O)NCCCCCCCOC1CCN(c3ncc(C(=O)N[C@H]4C(C)(C)[C@H](Oc5ccc(C#N)c(Cl)c5)C4(C)C)cn3)CC1)c1nnc(C)n1-2` [Compound I-24], in test [2], the Kd was more than 2500 nM.
For `Cc1sc2c(c1C)C(c1ccc(Cl)cc1)=N[C@@H](CC(=O)NCCOCCOCCOCC1CN(c3ncc(C(=O)N[C@H]4C(C)(C)[C@H](Oc5ccc(C#N)c(Cl)c5)C4(C)C)cn3)C1)c1nnc(C)n1-2` [Compound I-18], the Kd in test [2] lay in the range of 50 to 500 nM.
On to `Cc1sc2c(c1C)C(c1ccc(Cl)cc1)=N[C@@H](CC(=O)NCCOCCOCCOCCOC1CCN(c3ncc(C(=O)N[C@H]4C(C)(C)[C@H](Oc5ccc(C#N)c(Cl)c5)C4(C)C)cn3)CC1)c1nnc(C)n1-2` [Compound I-11], for which, in test [2], the Kd was in the range of 500 to 2500 nM.
`CCNC(=O)C[C@@H]1N=C(c2ccc(N3CCC(OC4CCN(c5ncc(C(=O)N[C@H]6C(C)(C)[C@H](Oc7ccc(C#N)c(Cl)c7)C6(C)C)cn5)CC4)CC3)cc2)c2c(sc(C)c2C)-n2c(C)nnc21` [Compound I-114] yielded a Kd in test [2] of 50 to 500 nM.
As to `CCNC(=O)C[C@@H]1N=C(c2ccc(N3CCC(N(C)C4CCN(c5ncc(C(=O)N[C@H]6C(C)(C)[C@H](Oc7ccc(C#N)c(Cl)c7)C6(C)C)cn5)CC4)CC3)cc2)c2c(sc(C)c2C)-n2c(C)nnc21` [Compound I-113], the Kd in test [2] was less than 50 nM.
Same read-out and setting: the same measure for `Cc1sc2c(c1C)C(c1ccc(Cl)cc1)=N[C@H](CC(=O)NCCOCCOCCOCCOC1CCN(c3ncc(C(=O)N[C@H]4C(C)(C)[C@H](Oc5ccc(C#N)c(Cl)c5)C4(C)C)cn3)CC1)c1nnc(C)n1-2` [Compound I-13]: more than 2500 nM; for `Cc1sc2c(c1C)C(c1ccc(Cl)cc1)=N[C@@H](CC(=O)NCCCN1CCN(CCCOC3CCN(c4ncc(C(=O)N[C@H]5C(C)(C)[C@H](Oc6ccc(C#N)c(Cl)c6)C5(C)C)cn4)CC3)CC1)c1nnc(C)n1-2` [Compound I-10]: 50 to 500 nM.
In the case of `Cc1sc2c(c1C)C(c1ccc(C#CC3CC4(CCN(c5ncc(C(=O)N[C@H]6C(C)(C)[C@H](Oc7ccc(C#N)c(Cl)c7)C6(C)C)cn5)CC4)C3)cc1)=N[C@@H](Cc1ncco1)c1nnc(C)n1-2` [Compound I-267], the GI50 in test [1] is less than 500 nM; in test [3], 500 to 1500 nM; in test [4], less than 500 nM.
On to `Cc1sc2c(c1C)C(c1ccc(OCCOC3CCN(c4ncc(C(=O)N[C@H]5C(C)(C)[C@H](Oc6ccc(C#N)c(Cl)c6)C5(C)C)cn4)CC3)cc1)=N[C@@H](CC(=O)O)c1nnc(C)n1-2` [Compound I-38], for which the results for the concentration for 50% growth inhibition (GI50) in test [1], in test [3] and in test [4] were 500 to 1500 nM, more than 3000 nM and more than 3000 nM, respectively.
On to `CCNC(=O)C[C@@H]1N=C(c2ccc(OC3CCN(c4ncc(C(=O)N[C@H]5C(C)(C)[C@H](Oc6ccc(C#N)c(Cl)c6)C5(C)C)cn4)CC3)cc2)c2c(sc(C)c2C)-n2c(C)nnc21` [Compound I-61], for which the figures for the GI50 in test [1], in test [3] and in test [4] were 500 to 1500 nM, 500 to 1500 nM and less than 500 nM, respectively.
As to `Cc1sc2c(c1C)C(c1ccc(CC3CC(C4CCN(c5ncc(C(=O)N[C@H]6C(C)(C)[C@H](Oc7ccc(C#N)c(Cl)c7)C6(C)C)cn5)CC4)C3)cc1)=NC(Cc1ncco1)c1nnc(C)n1-2` (stereo partly drawn) [Compound I-136], the 50% growth inhibitory concentration (GI50) in test [1] is less than 500 nM; in test [3] it was more than 3000 nM; in test [4], less than 500 nM.
In the case of `CCNC(=O)C[C@@H]1N=C(c2ccc(OCCCC#Cc3ncc(C(=O)N[C@H]4C(C)(C)[C@H](Oc5ccc(C#N)c(Cl)c5)C4(C)C)cn3)cc2)c2c(sc(C)c2C)-n2c(C)nnc21` [Compound I-83], the results for the GI50 in test [1], in test [3] and in test [4] were 500 to 1500 nM, 500 to 1500 nM and less than 500 nM, respectively.
Take `Cc1sc2c(c1C)C(c1ccc(O[C@H]3CC[C@@]4(CCCN(c5ncc(C(=O)N[C@H]6C(C)(C)[C@H](Oc7ccc(C#N)c(Cl)c7)C6(C)C)cn5)C4)CC3)cc1)=N[C@@H](Cc1ncco1)c1nnc(C)n1-2` [Compound I-172]: the GI50 in test [1] is less than 500 nM; in test [3], 500 to 1500 nM; in test [4] it was less than 500 nM.
With `Cc1sc2c(c1C)C(c1ccc(Cl)cc1)=N[C@H](CC(=O)NCCOCCOCCOCCOCCN(C)c1ncc(C(=O)N[C@H]3C(C)(C)[C@H](Oc4ccc(C#N)c(Cl)c4)C3(C)C)cn1)c1nnc(C)n1-2` [Compound I-19], the Kd in test [2] is more than 2500 nM.
Turning to `CCNC(=O)C[C@@H]1N=C(c2ccc(OCCOCCOC3CCN(c4ncc(C(=O)N[C@H]5C(C)(C)[C@H](Oc6ccc(C#N)c(Cl)c6)C5(C)C)cn4)CC3)cc2)c2c(sc(C)c2C)-n2c(C)nnc21` [Compound I-44], the GI50 in test [1] was 500 to 1500 nM; in test [3] it was less than 500 nM; in test [4], less than 500 nM.
Consider `CCNC(=O)C[C@@H]1N=C(c2ccc(OC3CCN(C4CCN(c5ncc(C(=O)N[C@H]6C(C)(C)[C@H](Oc7ccc(C#N)c(Cl)c7)C6(C)C)cn5)CC4)C3)cc2)c2c(sc(C)c2C)-n2c(C)nnc21` (stereo partly drawn) [Compound I-85], for which the GI50 is less than 500 nM in test [1], 500 to 1500 nM in test [3] and less than 500 nM in test [4].
Consider `Cc1sc2c(c1C)C(c1ccc(N3CC(C4CCN(c5ncc(C(=O)N[C@H]6C(C)(C)[C@H](Oc7ccc(C#N)c(Cl)c7)C6(C)C)cn5)CC4)C3)cc1)=NC(Cc1ncco1)c1nnc(C)n1-2` (stereo partly drawn) [Compound I-209], for which the GI50 in test [1] was less than 500 nM; in test [3], 500 to 1500 nM; in test [4], less than 500 nM.
In test [2], `Cc1sc2c(c1C)C(c1ccc(Cl)cc1)=N[C@@H](CC(=O)NCCOCCOCCOCC1CCN(c3ncc(C(=O)N[C@H]4C(C)(C)[C@H](Oc5ccc(C#N)c(Cl)c5)C4(C)C)cn3)CC1)c1nnc(C)n1-2` [Compound I-17] had a Kd of 50 to 500 nM.
